From patent US20250221409A1, “COMPOSITION FOR POTENTIATING EFFECTS OF USEFUL SUBSTANCE” (KANEKA CORPORATION, priority 2022, published 2025)

Tested on: soybean leaves
Assay: Promotion of herbicide (PQ) effects: SPAD values of soybean leaves after spraying test solutions
Type: in vivo, soybean (variety Fukuyutaka)
Settings: Experimental Example 2-1 (FIG. 4); PQ 0.001 mass %, surfactin 0.001 mass %, lecithin 0.0005 mass %; 3 days after application
Experimental: Culture soil was filled into 9-cm vinyl pots, and soybean seeds (the variety: Fukuyutaka) were seeded at 3 grains/pot. Cultivation was performed in a glass greenhouse, and, after germination, strains were thinned to retain a strain in a pot. The test solutions shown in Table 4 were sprayed on leaves 3 seeks after seeding. The test solutions were prepared by dissolving the components in water. The SPAD (soil and plant analyzer development) values of the leaves were measured using a chlorophyll meter (product name: SPAD-502Plus, Konica Minolta, Inc.) 3 days after application of the test solutions. The SPAD values are used as the indicators showing the chlorophyll amount of plants.
Culture soil was filled into 9-cm vinyl pots, and soybean seeds (the variety: Fukuyutaka) were seeded at 3 grains/pot. Cultivation was performed in a glass greenhouse, and, after germination, strains were thinned to retain a strain in a pot. The test solutions shown in Table 5 were sprayed on leaves 3 seeks after seeding. The test solutions were prepared by dissolving the components in water. When lecithin was to be added, at the outset, lecithin was dissolved in water, and a biosurfactant was added to reach a given concentration. The SPAD values of the leaves were measured using a chlorophyll meter 3 days after application of the test solutions.

C[n+]1ccc(-c2cc[n+](C)cc2)cc1 [PQ, paraquat dichloride]
SPAD values of the leaves: not substantially different from the SPAD values of the control
